Laboratory results published in patent US8470817B2, “Compounds and methods for treatment of cancer” (Sunesis Pharmaceuticals, Inc., priority 2009, dated 2013).

tested on: HL60 (Human promyelocytic leukemia cells); experiment: MTT cell proliferation assay in HL60 cell line; type: cell-based; conditions: HL-60, treated 72 hr or 96 hr
Description: (§1) Exemplary assays include MTT cell proliferation assay in A549 (Human lung adenocarcinoma epithelial cell line), and HL60 (Human promyelocytic leukemia cells) cell lines. Suitable cells include those derived through cell culture from patient samples (cancer cell lines) as well as cells derived using routine molecular biology techniques, e.g., retroviral transduction, transfection, mutagenesis, etc.
(§2) In an exemplary MTT assay, approximately 1,000 cells (A549 or HL60) are plated into each well of a 96-well plate. Cells are treated in duplicate with test compounds in a dose titration manner, typically 3-fold dilutions, eleven points per assay, with starting concentrations of 20 or 10 μM) or with DMSO-control (0.2% final concentration). Cells are treated for 72 hours (hr) or 96 hr before being analyzed by the MTT method. After 72 hr or 96 hr of compound treatment, 10 μL of MTT dye solution (5 mg/mL MTT dye [Sigma #M2128] in water) is added to each well and incubated at 37° C. for 2 hr. Following incubation, 100 μL of lysis buffer (10% SDS, 0.01 N HCl in water) is added to each well and incubated overnight at 37° C. The plate is analyzed the following day using a colorimetric plate reader at 595 nm wavelength. Values obtained for treatment samples are normalized to control samples.

Compound | IC50 [µM]
CN[C@H]1CN(c2ccc3c(=O)c(S(=O)(=O)N4CCCCC4)cn(-c4nccs4)c3n2)C[C@@H]1OC | < 3
O=c1c(S(=O)(=O)N2CCCCC2)cn(-c2nccs2)c2nc(N3CCN(c4cccnc4)CC3)ccc12 | 3 to 10
O=c1c(S(=O)(=O)N2CCCCC2)cn(-c2nccs2)c2nc(N3CCN(C4CCCCC4)CC3)ccc12 | < 3
C[C@@H]1CN(c2ccc3c(=O)c(S(=O)(=O)N4CCCCC4)cn(-c4nccs4)c3n2)CCN1 | < 3
C[C@@H]1CN(c2ccc3c(=O)c(S(=O)(=O)N4CCCCC4)cn(-c4nccs4)c3n2)C[C@H](C)N1 | < 3
CN(C)[C@@H]1CCN(c2ccc3c(=O)c(S(=O)(=O)N4CCCCC4)cn(-c4nccs4)c3n2)C1 | < 3
O=c1c(S(=O)(=O)N2CCCCC2)cn(-c2nccs2)c2nc(N3CCC(N4CCCC4)CC3)ccc12 | < 3
COC[C@@H]1CCCN1c1ccc2c(=O)c(S(=O)(=O)N3CCCCC3)cn(-c3nccs3)c2n1 | > 10
COC[C@H]1CCCN1c1ccc2c(=O)c(S(=O)(=O)N3CCCCC3)cn(-c3nccs3)c2n1 | > 10
N[C@@H]1CCN(c2ccc3c(=O)c(S(=O)(=O)N4CCCCC4)cn(-c4nccs4)c3n2)C1 | < 3
O=c1c(S(=O)(=O)N2CCCCC2)cn(-c2nccs2)c2nc(N3CCC(O)C3)ccc12 (centres unmarked) | > 10
CCN(CC)C1CCN(c2ccc3c(=O)c(S(=O)(=O)N4CCCCC4)cn(-c4nccs4)c3n2)C1 (centres unmarked) | < 3
O=c1c(S(=O)(=O)N2CCCCC2)cn(-c2nccs2)c2nc(N3CCOCC3)ccc12 | > 10
CN1CCN(c2ccc3c(=O)c(S(=O)(=O)N4CCCCC4)cn(-c4nccs4)c3n2)CC1 | > 10
O=c1c(S(=O)(=O)N2CCCCC2)cn(-c2nccs2)c2nc(N3CCNCC3)ccc12 | < 3
O=c1c(S(=O)(=O)N2CCCCC2)cn(-c2nccs2)c2nc(N3CCCC3)ccc12 | > 10
CN[C@H]1CN(c2ccc3c(=O)c(S(=O)(=O)N(C)C)cn(-c4nccs4)c3n2)C[C@@H]1OC | < 3
CN(C)S(=O)(=O)c1cn(-c2nccs2)c2nc(N3CCN(c4ccccn4)CC3)ccc2c1=O | > 10
CN(C)S(=O)(=O)c1cn(-c2nccs2)c2nc(N3CCN(C4CCCCC4)CC3)ccc2c1=O | 3 to 10
C[C@@H]1CN(c2ccc3c(=O)c(S(=O)(=O)N(C)C)cn(-c4nccs4)c3n2)CCN1 | > 10
C[C@@H]1CN(c2ccc3c(=O)c(S(=O)(=O)N(C)C)cn(-c4nccs4)c3n2)C[C@H](C)N1 | 3 to 10
CN(C)[C@@H]1CCN(c2ccc3c(=O)c(S(=O)(=O)N(C)C)cn(-c4nccs4)c3n2)C1 | 3 to 10
CN(C)S(=O)(=O)c1cn(-c2nccs2)c2nc(N3CCC(N4CCCC4)CC3)ccc2c1=O | 3 to 10
COC[C@@H]1CCCN1c1ccc2c(=O)c(S(=O)(=O)N(C)C)cn(-c3nccs3)c2n1 | > 10

Compound | IC50 [µM]
CN(C)S(=O)(=O)c1cn(-c2nccs2)c2nc(N3CC[C@@H](N)C3)ccc2c1=O | < 3
CN(C)S(=O)(=O)c1cn(-c2nccs2)c2nc(N3CCOCC3)ccc2c1=O | > 10
CN(C)S(=O)(=O)c1cn(-c2nccs2)c2nc(N3CCNCC3)ccc2c1=O | 3 to 10
CN(C)S(=O)(=O)c1cn(-c2nccs2)c2nc(N3CCCC3)ccc2c1=O | > 10
CN[C@H]1CN(c2cnc3c(=O)c(C(=O)O)cn(-c4nccs4)c3n2)C[C@@H]1OC | > 10
CN(C)[C@@H]1CCN(c2cnc3c(=O)c(C(=O)O)cn(-c4nccs4)c3n2)C1 | > 10
N[C@@H]1CCN(c2cnc3c(=O)c(C(=O)O)cn(-c4nccs4)c3n2)C1 | > 10
COC1CCN(c2cnc3c(=O)c(C(=O)O)cn(-c4nccs4)c3n2)C1 (centres unmarked) | > 10
O=C(O)c1cn(-c2nccs2)c2nc(N3CCC(O)C3)cnc2c1=O (centres unmarked) | > 10
CCN(CC)C1CCN(c2cnc3c(=O)c(C(=O)O)cn(-c4nccs4)c3n2)C1 (centres unmarked) | > 10
O=C(O)c1cn(-c2nccs2)c2nc(N3CCCC3)cnc2c1=O | 3 to 10
CC1CCCN1c1cnc2c(=O)c(C(=O)O)cn(-c3nccs3)c2n1 (centres unmarked) | > 10
COC[C@H]1CCCN1c1cnc2c(=O)c(C(=O)O)cn(-c3nccs3)c2n1 | > 10
COC[C@@H]1CCCN1c1cnc2c(=O)c(C(=O)O)cn(-c3nccs3)c2n1 | > 10
CN1CCN(c2cnc3c(=O)c(C(=O)O)cn(-c4nccs4)c3n2)CC1 | > 10
CCN1CCN(c2cnc3c(=O)c(C(=O)O)cn(-c4nccs4)c3n2)CC1 | > 10
O=C(O)c1cn(-c2nccs2)c2nc(N3CCN(C4CCCCC4)CC3)cnc2c1=O | > 10
O=C(O)c1cn(-c2nccs2)c2nc(N3CCNCC3)cnc2c1=O | > 10
C[C@@H]1CN(c2cnc3c(=O)c(C(=O)O)cn(-c4nccs4)c3n2)C[C@H](C)N1 | > 10
C[C@@H]1CN(c2cnc3c(=O)c(C(=O)O)cn(-c4nccs4)c3n2)CCN1 | > 10
O=C(O)c1cn(-c2nccs2)c2nc(N3CCOCC3)cnc2c1=O | > 10
O=C(O)c1cn(-c2nccs2)c2nc(N3CCN(c4ccccn4)CC3)cnc2c1=O | > 10
CC(C)(C)OC(=O)N1CCN(c2cnc3c(=O)c(C(=O)O)cn(-c4nccs4)c3n2)CC1 | > 10

tested on: A549 (Human lung adenocarcinoma epithelial cell line); experiment: MTT cell proliferation assay in A549 cell line; type: cell-based; conditions: A549 cells, treated 72 hr or 96 hr
Description: as §1, §2

Compound | IC50 [µM]
CN[C@H]1CN(c2ccc3c(=O)c(S(=O)(=O)N4CCCCC4)cn(-c4nccs4)c3n2)C[C@@H]1OC | < 3
O=c1c(S(=O)(=O)N2CCCCC2)cn(-c2nccs2)c2nc(N3CCN(c4cccnc4)CC3)ccc12 | < 3
O=c1c(S(=O)(=O)N2CCCCC2)cn(-c2nccs2)c2nc(N3CCN(C4CCCCC4)CC3)ccc12 | < 3
O=c1c(S(=O)(=O)N2CCCCC2)cn(-c2nccs2)c2nc(N3CCN(c4ccc(C(F)(F)F)cc4)CC3)ccc12 | < 3
C[C@@H]1CN(c2ccc3c(=O)c(S(=O)(=O)N4CCCCC4)cn(-c4nccs4)c3n2)CCN1 | < 3
C[C@@H]1CN(c2ccc3c(=O)c(S(=O)(=O)N4CCCCC4)cn(-c4nccs4)c3n2)C[C@H](C)N1 | < 3
CN(C)[C@@H]1CCN(c2ccc3c(=O)c(S(=O)(=O)N4CCCCC4)cn(-c4nccs4)c3n2)C1 | < 3
O=c1c(S(=O)(=O)N2CCCCC2)cn(-c2nccs2)c2nc(N3CCC(N4CCCC4)CC3)ccc12 | < 3
COC[C@@H]1CCCN1c1ccc2c(=O)c(S(=O)(=O)N3CCCCC3)cn(-c3nccs3)c2n1 | 3 to 10
COC[C@H]1CCCN1c1ccc2c(=O)c(S(=O)(=O)N3CCCCC3)cn(-c3nccs3)c2n1 | 3 to 10
N[C@@H]1CCN(c2ccc3c(=O)c(S(=O)(=O)N4CCCCC4)cn(-c4nccs4)c3n2)C1 | < 3
O=c1c(S(=O)(=O)N2CCCCC2)cn(-c2nccs2)c2nc(N3CCC(O)C3)ccc12 (centres unmarked) | < 3
CCN(CC)C1CCN(c2ccc3c(=O)c(S(=O)(=O)N4CCCCC4)cn(-c4nccs4)c3n2)C1 (centres unmarked) | < 3
O=c1c(S(=O)(=O)N2CCCCC2)cn(-c2nccs2)c2nc(N3CCOCC3)ccc12 | 3 to 10
CN1CCN(c2ccc3c(=O)c(S(=O)(=O)N4CCCCC4)cn(-c4nccs4)c3n2)CC1 | < 3
O=c1c(S(=O)(=O)N2CCCCC2)cn(-c2nccs2)c2nc(N3CCNCC3)ccc12 | < 3
O=c1c(S(=O)(=O)N2CCCCC2)cn(-c2nccs2)c2nc(N3CCCC3)ccc12 | < 3
CN[C@H]1CN(c2ccc3c(=O)c(S(=O)(=O)N(C)C)cn(-c4nccs4)c3n2)C[C@@H]1OC | < 3
CN(C)S(=O)(=O)c1cn(-c2nccs2)c2nc(N3CCN(c4ccccn4)CC3)ccc2c1=O | > 10
CN(C)S(=O)(=O)c1cn(-c2nccs2)c2nc(N3CCN(C4CCCCC4)CC3)ccc2c1=O | < 3
C[C@@H]1CN(c2ccc3c(=O)c(S(=O)(=O)N(C)C)cn(-c4nccs4)c3n2)CCN1 | 3 to 10
C[C@@H]1CN(c2ccc3c(=O)c(S(=O)(=O)N(C)C)cn(-c4nccs4)c3n2)C[C@H](C)N1 | 3 to 10
CN(C)[C@@H]1CCN(c2ccc3c(=O)c(S(=O)(=O)N(C)C)cn(-c4nccs4)c3n2)C1 | < 3
CN(C)S(=O)(=O)c1cn(-c2nccs2)c2nc(N3CCC(N4CCCC4)CC3)ccc2c1=O | 3 to 10

Compound | IC50 [µM]
COC[C@@H]1CCCN1c1ccc2c(=O)c(S(=O)(=O)N(C)C)cn(-c3nccs3)c2n1 | > 10
CN(C)S(=O)(=O)c1cn(-c2nccs2)c2nc(N3CC[C@@H](N)C3)ccc2c1=O | < 3
CN(C)S(=O)(=O)c1cn(-c2nccs2)c2nc(N3CCOCC3)ccc2c1=O | > 10
CN(C)S(=O)(=O)c1cn(-c2nccs2)c2nc(N3CCNCC3)ccc2c1=O | 3 to 10
CN(C)S(=O)(=O)c1cn(-c2nccs2)c2nc(N3CCCC3)ccc2c1=O | < 3
CN[C@H]1CN(c2cnc3c(=O)c(C(=O)O)cn(-c4nccs4)c3n2)C[C@@H]1OC | > 10
CN(C)[C@@H]1CCN(c2cnc3c(=O)c(C(=O)O)cn(-c4nccs4)c3n2)C1 | > 10
N[C@@H]1CCN(c2cnc3c(=O)c(C(=O)O)cn(-c4nccs4)c3n2)C1 | > 10
COC1CCN(c2cnc3c(=O)c(C(=O)O)cn(-c4nccs4)c3n2)C1 (centres unmarked) | > 10
O=C(O)c1cn(-c2nccs2)c2nc(N3CCC(O)C3)cnc2c1=O (centres unmarked) | > 10
CCN(CC)C1CCN(c2cnc3c(=O)c(C(=O)O)cn(-c4nccs4)c3n2)C1 (centres unmarked) | > 10
O=C(O)c1cn(-c2nccs2)c2nc(N3CCCC3)cnc2c1=O | 3 to 10
CC1CCCN1c1cnc2c(=O)c(C(=O)O)cn(-c3nccs3)c2n1 (centres unmarked) | 3 to 10
COC[C@H]1CCCN1c1cnc2c(=O)c(C(=O)O)cn(-c3nccs3)c2n1 | > 10
COC[C@@H]1CCCN1c1cnc2c(=O)c(C(=O)O)cn(-c3nccs3)c2n1 | > 10
CN1CCN(c2cnc3c(=O)c(C(=O)O)cn(-c4nccs4)c3n2)CC1 | > 10
CCN1CCN(c2cnc3c(=O)c(C(=O)O)cn(-c4nccs4)c3n2)CC1 | > 10
O=C(O)c1cn(-c2nccs2)c2nc(N3CCN(C4CCCCC4)CC3)cnc2c1=O | > 10
O=C(O)c1cn(-c2nccs2)c2nc(N3CCNCC3)cnc2c1=O | > 10
C[C@@H]1CN(c2cnc3c(=O)c(C(=O)O)cn(-c4nccs4)c3n2)C[C@H](C)N1 | > 10
C[C@@H]1CN(c2cnc3c(=O)c(C(=O)O)cn(-c4nccs4)c3n2)CCN1 | > 10
O=C(O)c1cn(-c2nccs2)c2nc(N3CCOCC3)cnc2c1=O | > 10
O=C(O)c1cn(-c2nccs2)c2nc(N3CCN(c4ccccn4)CC3)cnc2c1=O | > 10
CC(C)(C)OC(=O)N1CCN(c2cnc3c(=O)c(C(=O)O)cn(-c4nccs4)c3n2)CC1 | > 10
